{
  "source": "paper PMC7199333",
  "about": "“Efficacy and safety of lanreotide autogel compared with lanreotide 40 mg prolonged release in Chinese patients with active acromegaly: results from a phase 3, prospective, randomized, and open-label study (LANTERN)” (BMC Endocrine Disorders, 2020)",
  "key": {"[1]": {"test": "Serum lanreotide pharmacokinetics (non-compartmental)", "format": "in vivo, human", "conditions": "lanreotide autogel; fourth titrated dose 120 mg normalized to 90 mg vs first dose of 90 mg; PK subgroup", "description": "Lanreotide autogel – pre-dose serum samples were taken at weeks 1, 13, 17, and 29; sampling around 4 h after treatment at weeks 13 and 17 and at the end of study (Week 33)/early withdrawal visit. For a subset of patients in the PK subgroup, additional samples were taken during the study and during the PK extension phase: after the first administration of 90 mg at Week 1 (1, 4, 6, 8, 12, 24, and 72 h), Week 2 (168 h), Week 3 (336 h), Week 4 (504 h) and prior to the next administration at Week 5 (672 h); after the fourth (last) administration of the titrated dose at Week 29 (1, 4, 6, 8, 12, 24, and 72 h), Week 30 (168 h), Week 31 (336 h), Week 32 (504 h), and at Week 37 (1344 h) and Week 41 (2016 h).\nLanreotide 40 mg PR – pre-dose serum samples were taken at weeks 1, 2, 13, 16, and at the end-of-study/early withdrawal visit (all taken shortly before treatment) for all patients.\nPK endpoints included trough lanreotide concentrations (Ctrough i.e. observed serum concentration at the end of the dosing interval) prior to the fourth, fifth and eighth administrations and at the end-of-study treatment visit with lanreotide autogel, and prior to the second, tenth and twelfth administrations and at the end-of-study visit with lanreotide 40 mg PR. Following a similar approach as reported by Bronstein and colleagues, a non-compartmental PK analysis was performed for the lanreotide autogel PK subgroup to provide individual PK parameters over a 4-week dosing interval after the first and last administration of study drug (i.e. steady state): maximum plasma concentration (Cmax), time to maximum plasma concentration (tmax), area under the concentration–time curve over a 4-week dosing interval (AUCtau), Ctrough and elimination t½ [19].\nAdditional parameters were estimated, comparing lanreotide PK after Week 1 and Week 29 after normalization to a dose of 90 mg: accumulation ratio for Ctrough (Rtrough) = Ctrough,Week 29/Ctrough,Week 1; accumulation ratio for Cmax (Rmax) = Cmax,Week 29/Cmax,Week 1; accumulation ratio for AUCtau (RAUC) = AUCtau, Week 29/AUCtau, Week 1."}, "[2]": {"test_system": "human somatostatin receptor 2", "parameters": "method as in PMID 7988476", "conditions": "selective somatostatin receptor subtype agonist; cited from earlier work"}, "[3]": {"test_system": "human somatostatin receptor 5", "parameters": "method as in PMID 7988476", "conditions": "selective somatostatin receptor subtype agonist; cited from earlier work"}, "[4]": {"conditions": "cited from earlier work", "from_the_text": "Somatostatin analogs (SSAs) are the preferred type of medical therapy used to reduce GH secretion. Patients who have persistent disease following surgical resection are recommended treatment with the first-generation long acting SSAs, octreotide long-acting release (LAR) or lanreotide autogel. Lanreotide is a synthetic octapeptide analog of natural somatostatin with a longer half-life (t½) than the native molecule, and a selective somatostatin receptor subtype agonist with a high affinity for human somatostatin receptors 2 and 5 [5], which are commonly expressed at both the mRNA [6] ... || Steady-state PK was achieved after the administration of four lanreotide autogel doses. […] Similarly, Bronstein and colleagues reported a steady state Cmin (equivalent to Ctrough) of 3.76 ng/mL [19]."}},
  "data": [
    {"smiles": "CC(C)[C@@H]1NC(=O)[C@H](CCCCN)NC(=O)[C@@H](Cc2c[nH]c3ccccc23)NC(=O)[C@H](Cc2ccc(O)cc2)NC(=O)[C@@H](NC(=O)[C@H](N)Cc2ccc3ccccc3c2)CSSC[C@@H](C(=O)N[C@H](C(N)=O)[C@@H](C)O)NC1=O", "note": "[lanreotide]", "values": [
      {"measurement": "Mean RAUC (accumulation ratio for AUCtau, Week 29/Week 1)", "setting": "[1]", "value": 2.33},
      {"measurement": "Mean Rmax (accumulation ratio for Cmax, Week 29/Week 1)", "setting": "[1]", "value": 1.40},
      {"measurement": "Mean Rtrough (accumulation ratio for Ctrough, Week 29/Week 1)", "setting": "[1]", "value": 2.62},
      {"measurement": "Affinity for human somatostatin receptor 2", "setting": "[2]", "value": "high affinity"},
      {"measurement": "Affinity for human somatostatin receptor 5", "setting": "[3]", "value": "high affinity"},
      {"measurement": "Half-life (t½) compared with the native molecule (natural somatostatin)", "setting": "[4]", "value": "longer"}
    ]}
  ]
}
